Values joined by “and” are separate entries in the source; they are usually repeats but may differ in a detail not shown here. Identical values can stand only once.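 In this assay, cells in 96-well plates receive the compound at five concentrations for 48 hours. Endpoints are linearly interpolated between the surrounding concentrations. Abbreviation: GI50, concentration required for 50% inhibition of growth. Definition used: TGI = concentration required for complete inhibition of growth.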
How the values were obtained:
Test in all cases: inhibition of tumour cell growth, NCI panel, 48 h
NCI-H522 lung = tested on: NCI-H522 lung
SK-MEL-2 melanoma = tested on: SK-MEL-2 melanoma
K-562 leukemia = tested on: K-562 leukemia
CAKI-1 renal = tested on: CAKI-1 renal
EKVX NSCLC = tested on: EKVX NSCLC
M14 melanoma = tested on: M14 melanoma
A549 NSCLC = tested on: A549 NSCLC
NCI-H23 lung = tested on: NCI-H23 lung
MOLT-4 leukemia = tested on: MOLT-4 leukemia
LOX IMVI melanoma = tested on: LOX IMVI melanoma

Structure (SMILES)	GI50 (NCI-H522 lung)	TGI (NCI-H522 lung)	GI50 (SK-MEL-2 melanoma)	TGI (SK-MEL-2 melanoma)	GI50 (K-562 leukemia)	TGI (K-562 leukemia)	GI50 (CAKI-1 renal)	TGI (CAKI-1 renal)	GI50 (EKVX NSCLC)	TGI (EKVX NSCLC)	GI50 (M14 melanoma)	TGI (M14 melanoma)	GI50 (A549 NSCLC)	TGI (A549 NSCLC)	GI50 (NCI-H23 lung)	TGI (NCI-H23 lung)	GI50 (MOLT-4 leukemia)	TGI (MOLT-4 leukemia)	GI50 (LOX IMVI melanoma)	TGI (LOX IMVI melanoma)
Nc1ncnc2c1c(-c1ccc(Oc3ccccc3)cc1)nn2CC1SSCC1O (configuration not stated)	2.62 µM	9.49 µM	0.825 µM	2.15 µM	0.788 µM	7.39 µM	3.71 µM	12.7 µM	1.04 µM	6.25 µM	0.0609 µM	0.121 µM	3.8 µM	9.17 µM	1.7 µM	7.97 µM	0.124 µM	0.621 µM	0.335 µM	4.96 µM
CNC(=O)OCc1nc(SSc2nc(COC(=O)NC)c(COC(=O)NC)n2C)n(C)c1COC(=O)NC	–	> 100 µM	–	> 100 µM	–	> 100 µM	–	> 100 µM	–	> 100 µM	–	> 100 µM	–	> 100 µM	–	> 100 µM	–	> 100 µM	–	> 100 µM
O=C1Nc2ccc(-c3cccnc3)cc2/C1=C/c1cc(Br)c(O)c(Br)c1	4.38 µM	13.7 µM	3.11 µM	6.85 µM	9.07 µM	> 25 µM	4.83 µM	> 23.7 µM	10.2 µM	> 25 µM	4.45 µM	> 21.9 µM	8.05 µM	> 25 µM	6.86 µM	> 21.9 µM	8.04 µM	> 25 µM	4.99 µM	> 25 µM
CCc1ccc(Oc2c(-c3ccc(OCc4ccc(Cl)cc4)cc3O)nn(C)c2C(F)(F)F)cc1	0.303 µM	1.94 µM	1.02 µM	2.63 µM	0.39 µM	1.58 µM	2.09 µM	7.25 µM	1.03 µM	2.98 µM	1.17 µM	2.68 µM	0.514 µM	1.95 µM	0.376 µM	1.74 µM	0.565 µM	2.93 µM	0.416 µM	1.51 µM
COc1cc([C@@H]2c3cc4c(cc3[C@H](SC(=N)N)[C@H]3COC(=O)[C@H]23)OCO4)cc(OC)c1OC	0.125 µM	–	5.78 µM	> 100 µM	0.14 µM	> 100 µM	0.249 µM	17.3 µM	0.291 µM	> 100 µM	0.288 µM	> 100 µM	0.305 µM	> 100 µM	0.299 µM	> 100 µM	0.382 µM	> 100 µM	0.0799 µM	> 100 µM
CC[n+]1c(-c2ccccc2)c2cc(N)ccc2c2ccc(N)cc21	–	2.54 µM and 8.58 µM and 23.2 µM	1.11 µM	3.8 µM and 6.55 µM	1.75 µM	30.1 µM and 50.5 µM and 35.3 µM	66.2 µM	> 100 µM	–	34.2 µM and 42.8 µM and > 100 µM	3.84 µM	16.6 µM and 44.5 µM	2.17 µM	48.3 µM and 76.7 µM and > 95.1 µM	0.515 µM	3.65 µM and 5.2 µM and 3.61 µM	2.77 µM	21.1 µM and 13 µM and 35.9 µM	2.31 µM and 3.12 µM and 7.53 µM	13.7 µM and 21.2 µM and 34.7 µM
O=C(CCCCN1CCN(CCCCC(=O)Nc2ccccc2C#C/C=C\C#Cc2ccccc2C(F)(F)F)CC1)Nc1ccccc1C#C/C=C\C#Cc1ccccc1C(F)(F)F	9.19 µM	20.4 µM	12.4 µM	29.9 µM	8.04 µM	34.8 µM	> 50 µM	> 50 µM	18 µM	> 50 µM	11.7 µM	25.9 µM	12.4 µM	37.6 µM	13.8 µM	38.9 µM	8.55 µM	27 µM	10.1 µM	20.2 µM
CCOC(=O)C[C@@]12CCCN[C@]1(C)CCc1ccccc12	–	> 100 µM	–	> 100 µM	–	> 100 µM	–	> 100 µM	–	> 100 µM	–	> 100 µM	–	> 100 µM	–	> 100 µM	–	> 100 µM	–	> 100 µM
CCCCCCCCCCCCCC(=O)O[C@H]1CC[C@H](NC(=O)[C@H](OC)[C@H](O)[C@@H](O)[C@H](O)/C=C/C(C)C)C(=O)N(C)C1	0.00689 µM	0.269 µM and 0.168 µM	0.0156 µM	15 µM and 6.33 µM	0.00238 µM	15 µM and > 23.8 µM	–	0.668 µM	1.36 µM	15 µM and > 23.8 µM	0.00238 µM	1.75 µM and 0.413 µM	0.00238 µM	15 µM and 4.49 µM	0.00328 µM	0.15 µM and 0.056 µM	0.00238 µM	15 µM and 5.24 µM	–	15 µM and 3.34 µM
Cc1ccccc1Nc1cc(O)c2c(=O)cc(-c3ccccc3)oc2c1	1.79 µM	> 100 µM	2.44 µM	> 100 µM	0.469 µM	> 100 µM	2.77 µM	> 100 µM	3.35 µM	> 100 µM	2.39 µM	> 100 µM	2.11 µM	> 100 µM	4.75 µM	> 100 µM	2.66 µM	> 100 µM	2.75 µM	> 100 µM
COc1cccc(-c2cc(=O)c3cc(N4CCN(C)CC4)ccc3[nH]2)c1	1.02 µM	4.28 µM and 3.79 µM	3.16 µM	> 100 µM	0.492 µM	6.22 µM	0.722 µM	> 100 µM	2.96 µM	–	2.61 µM	> 100 µM	6.99 µM	> 100 µM	3.45 µM	–	2.06 µM	7.21 µM	2.11 µM	–
CCOC(=O)[C@@H](C)C[C@H](Cc1ccccc1)NC(=O)c1csc([C@@H](C[C@H](C(C)C)N(C)C(=O)CNC(=O)[C@H]2CCCCN2C)OC(C)=O)n1	0.463 µM	> 3.79 µM	0.69 µM	> 14.3 µM	0.358 µM	> 14.3 µM	0.771 µM	> 14.3 µM	1.97 µM	> 14.3 µM	0.804 µM	7.31 µM	3.49 µM	> 14.3 µM	2.34 µM	> 14.3 µM	3.12 µM	> 14.3 µM	2.14 µM	> 14.3 µM
Cc1ccc(-n2c3nc(=O)n(C)c(=O)c-3nc3ccccc32)c(C)c1	–	29 µM	–	27.5 µM	–	40.6 µM	–	57.7 µM	–	21.6 µM	–	18.6 µM	–	20.4 µM	–	7.75 µM	–	36.2 µM	–	33.9 µM
